Laboratory results published in US8278333B2, “Crystals of benzoxadiazole derivative” (Astellas Pharma Inc., priority 2006, dated 2012).
Entries after “also recorded” stand apart in the source; their conditions may differ.

Legend:
[1] = Photo stability test (impurity by HPLC after 1.2 million lux-hours); assay type: physicochemical; details: after preservation under 1.2 million lux-hours of integrated luminance, 25° C.
Description: The amount of impurity was measured through HPLC using a preserved sample, under 1.2 million lux-hours (temperature: 25° C.) of integrated luminance, using a light stability testing device LTL-200D3J-15.
The amount of impurity was measured through HPLC using a preserved sample, under 1.2 million lux-hours (temperature: 25° C.) of integrated luminance, using a light stability testing device LTL-200D3J-15. • HPLC Conditions • Device: LC1100 (LC-5) manufactured by Agilent • Mobile phase: A: 0.01 mol/L, NaClO4 buffer (pH 2.5), B: MeCN • Flow rate: 0.2 mL/min • Column: Inertsil ODS-3 3 um (2.1 mm×100 mm) • Column temperature: 40° C. • Gradient condition: Bconc. 20 to 90% (0 to 18 min), 90% (18 to 23 min), 20% (23.1 to 33 min) • Injection volume: 1 μL • Autosampler temperature: 5° C. • Detection wavelength: 254 nm

[2] = Hygroscopicity test (VTI SGA-100, 25° C., 5 to 95% relative humidity); assay type: physicochemical; details: for hygroscopicity (in words): 5 to 95% relative humidity
Description: The measurement was carried out using “DVS” or “SGA-100”, under the conditions of temperature: 25° C., measurement range: 5 to 95% relative humidity, and measurement interval: 5% relative humidity.
For the measurement of hygroscopicity, “VTI SGA-100” was used under the conditions of temperature: 25° C., measurement range: 5 to 95% relative humidity, and measurement interval: 5% relative humidity.

CC(C)c1nnc(-c2ccc(-c3ccccc3)nc2)n1-c1cccc2nonc12 [α-form crystal, 4-[3-isopropyl-5-(6-phenyl-3-pyridyl)-4H-1,2,4-triazol-4-yl]-2,1,3-benzoxadiazole]
Impurity Increase Amount (%) [1]: 0.0%
Impurity Increase Amount (%) ([1]; listed as α-form Crystal): 0.0%
hygroscopicity (in words) [2]: less than that of the known δ-form crystal; also recorded: relatively low hygroscopicity as compared to the known δ-form crystal

CC(C)c1nnc(-c2ccc(-c3ccccc3)nc2)n1-c1cccc2nonc12 [β-form crystal, 4-[3-isopropyl-5-(6-phenyl-3-pyridyl)-4H-1,2,4-triazol-4-yl]-2,1,3-benzoxadiazole]
Impurity Increase Amount (%) [1]: 0.0%
Impurity Increase Amount (%) ([1]; listed as β-form Crystal): 0.0%
hygroscopicity (in words) [2]: no hygroscopicity

CC(C)c1nnc(-c2ccc(-c3ccccc3)nc2)n1-c1cccc2nonc12 [γ-form crystal, 4-[3-isopropyl-5-(6-phenyl-3-pyridyl)-1,2,4-triazol-4-yl]-2,1,3-benzoxadiazole]
Impurity Increase Amount (%) [1]: 0.0%
Impurity Increase Amount (%) ([1]; listed as γ-form Crystal): 0.0%
hygroscopicity (in words) [2]: no hygroscopicity

CC(C)c1nnc(-c2ccc(-c3ccccc3)nc2)n1-c1cccc2nonc12 [δ-form crystal, 4-[3-isopropyl-5-(6-phenyl-3-pyridyl)-4H-1,2,4-triazol-4-yl]-2,1,3-benzoxadiazole, reference compound]
Impurity Increase Amount (%) [1]: 1.0%
Impurity Increase Amount (%) ([1]; listed as δ-form Crystal): 1.0%
relative humidity from which a drastic increase in weight is shown [2]: about 80%
relative humidity from which hygroscopicity gradually starts [2]: about 50%
moisture retained ([2]; at a relative humidity of about 95%): approximately 2%
